# Measurements as given in patent US5668144A, “1-azabicyclopheptane derivatives” (American Home Products Corporation, priority 1996, dated 1997).
# Experiments:
# [1] = biological target: T1, M1 acetylcholine receptors (Homo sapiens, UniProt P11229); assay: PI hydrolysis stimulation in CHO cells expressing M1 acetylcholine receptors (muscarinic m1 agonism); assay type: cell-based; conditions: exo versus endo azacycloheptane analog
# T1 sequence (P11229 1-460): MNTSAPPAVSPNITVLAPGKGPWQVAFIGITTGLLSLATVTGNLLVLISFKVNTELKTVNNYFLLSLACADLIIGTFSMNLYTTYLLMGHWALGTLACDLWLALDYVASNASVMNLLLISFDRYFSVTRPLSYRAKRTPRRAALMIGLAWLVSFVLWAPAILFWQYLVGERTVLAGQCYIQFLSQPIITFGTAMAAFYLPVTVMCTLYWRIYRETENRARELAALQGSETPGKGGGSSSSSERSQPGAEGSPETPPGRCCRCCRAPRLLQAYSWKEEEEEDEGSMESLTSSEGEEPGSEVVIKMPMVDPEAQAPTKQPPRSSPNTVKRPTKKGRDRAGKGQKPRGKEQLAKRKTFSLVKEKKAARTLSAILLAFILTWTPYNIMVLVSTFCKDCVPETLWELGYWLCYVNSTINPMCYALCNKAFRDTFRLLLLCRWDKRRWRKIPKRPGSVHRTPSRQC
# [2] = in vivo; cited from earlier work
# [3] = system: patients with mild to moderate Alzheimer's Disease; conditions: cited from earlier work; for memory in patients (in words): mild to moderate Alzheimer's Disease
# [4] = system: scopolamine treated animals; assay: Reversal of scopolamine hyperactivity, mouse swim tank test; assay type: in vivo, Male CFW mice; conditions: ip, scopolamine HBr 0.3 mg/kg, read-out: minimum effective dose (MED), reversal of hyperactivity of scopolamine treated animals
# Description: The compound of Example 3, representative of the other compounds of this invention, was also tested in accordance with the procedure of Symons et al, Soc. Neuroscience Abstracts 12:2, 897 (1986) in which Male CFW mice, 25 to 35 grams in weight are given the test compound in suitable vehicle plus 0.3 mg/kg scopolamine. HBr in suitable vehicle, i.p.(3 groups of 12 animals each) or vehicle alone (1 group of 12 animals ) or vehicle plus scopolamine. HBr (1 group of 12 animals). The mice are placed in a swim tank, individually, containing 10 cm H2 O for a period of 5 minutes and the distance each animal swims is recorded.
# muscarinic receptors = conditions: disclosed in earlier patents; cited from earlier work
# [5] = quaternary ammonium group; cited from earlier work
# m1 receptors = conditions: cited from earlier work
# [6] = system: scopolamine disrupted rat performance; assay: Eight arm radial maze, reversal of scopolamine disrupted rat performance; assay type: in vivo, Sprague-Dawley male rats; conditions: ip, test compound i.p., scopolamine HBr 0.3 mg/kg s.c., read-out: minimum effective dose (MED), reversal of scopolamine disrupted rat performance
# Description: The compound of Example 3 was also tested in the eight arm radial maze test procedure in which Sprague-Dawley male rats at 85% of their free feeding weight are trained to obtain two food pellets from food cups placed at the ends of four of the eight arms radiating from a circular central area of the maze, in a five minute period. After training to a level of error (return to a previously entered arm is error) equal to or less than 2, the rats performance is disrupted with scopolamine HBr (0.3 mg/kg, s.c.) and test compound dosage (i.p.). The number of errors are then determined and compared with control receiving scopolamine alone.
compound,measurement,setting,value
"CNC(=O)O[C@@H]1CN2CC[C@@H]1C2 (relative stereo) [Example 1, (exo)-Methylcarbamic acid 1-aza-bicyclo[2.2.1]hept-3-yl ester]",muscarinic agonism (in words),[1],enhanced muscarinic agonism
COC(=O)C1=CCCN(C)C1 [Arecoline],half-life (in words),[2],short
same,memory in patients (in words),[3],memory improvement
"CNC(=O)O[C@@H]1CN2CC[C@@H]1C2 (single isomer, unassigned) [Example 3, (-)-(exo)-Methylcarbamic acid 1-aza-bicyclo[2.2.1]hept-3-yl ester]",minimal effective dose,[4],30 mg/kg
CNC(=O)OC1CN2CCCC1C2 (stereo not drawn) [exo-1-azabicyclo[3.2.1]oct-6-yl-N-methylcarbamate],muscarinic activity (in words),muscarinic receptors,muscarinic activity
C[C@@H]1O[C@H](C[N+](C)(C)C)C[C@H]1O [muscarine],ability to enter the CNS (in words),[5],not able to enter the CNS
same,activation of m1 receptors (in words),m1 receptors,able to fully activate m1 receptors
"CN(C)C(=O)OC1CC2CCCN(C2)C1 (stereo not drawn) [exo-1-azabicyclo[3.3.1]non-3-yl-N,N-dimethylcarbamate]",muscarinic activity (in words),muscarinic receptors,muscarinic activity
"CNC(=O)O[C@@H]1CN2CC[C@@H]1C2 (single isomer, unassigned) [Example 2, (+)-(exo)-Methylcarbamic acid 1-aza-bicyclo[2.2.1]hept-3-yl ester]",minimal effective dose,[6],1 mg/kg
Nc1c2c(nc3ccccc13)CCCC2 [tacrine],adverse side effects (in words),[3]; especially at the higher doses where it is most effective,adverse side effects especially at the higher doses
same,memory in patients (in words),[3],improvement in memory
C[N+](C)(C)CCOC(N)=O [carbachol],ability to enter the CNS (in words),[5],not able to enter the CNS
CNC(=O)O[C@@H]1CN2CC[C@H]1C2 (relative stereo) [endo azacycloheptane analog],muscarinic agonism (in words),[1],not
CNC(=O)OC1CC2CCCN(C2)C1 (stereo not drawn) [exo-1-azabicyclo[3.3.1]non-3-yl-N-methylcarbamate],muscarinic activity (in words),muscarinic receptors,muscarinic activity
